This is an account of results in patent publication US7544768B2, “Peptides for inducing apoptosis in tumor cells” (Deutsches Krebsforschungszentrum Stiflung des Offentlichen …, priority 2002, dated 2009).

Test in all cases: Colony formation assay, transfected expression vectors
Common to all, as to format: cell-based

In assay [1] the test system is livin-expressing HeLa cells. Particulars: nucleic acid coding for peptide transfected; FIG. 3. The text has this: (§1) Expression vectors bearing the nucleic acid coding for peptide number 75 (corresponds to SEQ ID No: 127 or number 41 of TABLE 2) or bearing the nucleic acid coding for control peptide were introduced in HeLa cells and livin-negative C33a cells. The cells were selected for stable transfectants.
(§2) The nucleic acids coding for the peptides of TABLE 3 were cloned into mammalian expression vectors and transfected into different cells to observe their further growth. By using a HIS-tag it was possible to verify that all peptide sequences could be expressed.

In assay [2] the test system is livin-negative C33a cells. Particulars: nucleic acid coding for peptide transfected; FIG. 3.
From the text: as §1, §2

The subject of assay [3] is MeWo (melanoma cells). Particulars: nucleic acid coding for peptide transfected.
From the text: as §2

With “GSRCIRRRISILFFVFRVLRSRRVLRSAEIYES* (randomized peptide that bind to particular IAPs) [compound 75]”, the “growth of livin-expressing HeLa cells” value in assay [1] is “blocked the growth”. For the same substance, the “growth of livin-negative C33a cells” value in assay [2] is “not affected”. The “growth of MeWo (melanoma cells)” value in assay [3] is recorded as “blocked the growth”.
